# Results as given in publication PMC7585637 (Biomolecules & Therapeutics, 2020).
# Target: T1, SIRT1 (Homo sapiens, UniProt Q96EB6)
# T1 sequence (Q96EB6 2-747): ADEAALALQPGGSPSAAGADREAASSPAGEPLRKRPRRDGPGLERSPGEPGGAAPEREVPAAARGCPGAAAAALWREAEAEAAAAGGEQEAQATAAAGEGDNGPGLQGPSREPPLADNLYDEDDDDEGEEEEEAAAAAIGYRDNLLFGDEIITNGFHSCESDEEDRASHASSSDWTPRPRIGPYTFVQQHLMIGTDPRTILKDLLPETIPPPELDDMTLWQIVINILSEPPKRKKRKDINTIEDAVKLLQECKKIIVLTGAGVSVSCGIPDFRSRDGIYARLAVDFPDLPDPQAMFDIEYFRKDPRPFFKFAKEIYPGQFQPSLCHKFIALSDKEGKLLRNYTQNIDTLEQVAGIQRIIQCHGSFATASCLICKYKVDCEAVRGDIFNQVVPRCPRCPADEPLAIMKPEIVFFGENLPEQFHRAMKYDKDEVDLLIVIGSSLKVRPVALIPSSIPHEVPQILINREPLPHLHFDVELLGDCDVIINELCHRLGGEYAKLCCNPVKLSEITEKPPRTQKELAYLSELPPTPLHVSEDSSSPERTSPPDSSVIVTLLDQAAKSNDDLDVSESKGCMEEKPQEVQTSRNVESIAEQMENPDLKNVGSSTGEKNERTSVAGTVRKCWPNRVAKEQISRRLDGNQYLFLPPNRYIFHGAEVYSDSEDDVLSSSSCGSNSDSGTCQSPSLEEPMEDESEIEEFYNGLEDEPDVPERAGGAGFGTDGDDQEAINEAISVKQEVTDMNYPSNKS
# Experiment: Fluor-de-Lys SIRT1 fluorometric deacetylase assay
# Format: biochemical
compound,measurement,value
"CC(C)(C)c1cc(C=C2C(=O)NC(=S)NC2=O)cc(C(C)(C)C)c1O [MHY2256, 5-(3,5-Di-tert-butyl-4-hydroxybenzylidene)-2-thioxodihydropyrimidine-4,6(1H,5H)-dione]",IC50,1020 nM
